test: Cellular gamma-Secretase Assay: Human neuroglioma H4 cells overexpressing human APP695 with the Swedish double mutation (K595N/M596L) were plated at 30,000 cells/well/100 μl in 96-well plates in IMDM media containing 10% FCS, […] Hygromycin B and incubated at 37° C., 5% CO2.3-4 hr post plating, compounds are a diluted in media and 50 μl is added as 1.5-fold concentrate to achieve the final concentration. Compound incubation is performed for 24 hr. Final doses typically range from 4 μM down to 0.0013 μM in half-log steps resulting in a eight point dose response curve.Appropriate controls using vehicle only and reference compound were applied to this assay. The final concentration of Me2SO was 0.4%.After incubation at 37° C., 5% CO2, the supernatant was subjected to quantification of secreted Aβ42 by the means of an AlphaLisa assay kit (Human Amyloid beta 1-42 Kit: Cat #AL203C, Perkin Elmer). 20 μl of the cell culture supernatant was transferred to an assay plate. Then 10 μl of a mixture of the AlphaLisa coupled capture antibody and the biotinylated detection antibody was added and incubated for 3 hours at room temperature while softly shaking the assay plate. After a further addition of 20 μl of the Donor beads the assay plate was incubated for 30 min at room temperature and constant shaking without exposure to direct light. The assay plate was then read on a Paradigm AlphaLisa Reader using the build-in program with excitation at 680 nm and emission at 570 nm.The measured signals were then used to calculate IC50 values for inhibition of Aβ42 secretion by nonlinear regression fit analysis using XLfit 5.3 software (IDBS).

Structure (SMILES)	EC50 [nM]
COc1cc(Nc2nc3c(C(C)C)ccc(OCC(F)(F)F)n3n2)ccc1-n1cnc(C)n1	26.6
COc1cc(N2C[C@H]3CC[C@@H](C2)[C@@H]3Nc2nc3c(C)ccc(OCC(F)(F)F)n3n2)ccn1	15.6
COc1cc(Nc2nc3c(C(C)C)ccc(OCC(F)(F)F)n3n2)ccc1-c1ccnc(C)c1	21.2
Cc1cc(N2C[C@H]3CC[C@@H](C2)[C@@H]3Nc2nc3cccc(OCC(F)(F)F)n3n2)sn1	7
COc1cc(Nc2nc3c(C(C)(C)O)ccc(O[C@@H](C)C(F)(F)F)n3n2)ccc1-n1cnc(C)n1	39
Cc1ccc(OCC(F)(F)F)n2nc(N[C@@H]3[C@@H]4CC[C@H]3CN(c3ccnc(C(F)(F)F)c3)C4)nc12	20.6
COc1cc(Nc2nc3c(C(C)(C)O)ccc(O[C@@H](C)C(F)(F)F)n3n2)ccc1-n1cnc(Cl)n1	42.2
COc1cc(Nc2nc3c(C(F)(F)F)ccc(O[C@@H](C)C(F)(F)F)n3n2)ccc1-n1cnc(C)n1	40.5
Cc1ncn(-c2ccc(Nc3nc4c(C(C)(C)O)ccc(OCC(F)(F)F)n4n3)cc2OC(F)F)n1	45.5
Cc1ncn(-c2ccc(Nc3nc4c(C(C)C)ccc(OCC(F)(F)F)n4n3)cc2OC(F)F)n1	34.2
CC(C)c1ccc(OCC(F)(F)F)n2nc(N[C@@H]3[C@@H]4CC[C@H]3CN(c3ccnc(Cl)c3)C4)nc12	11.7
Cc1ccc(OCC(F)(F)F)n2nc(N[C@@H]3[C@@H]4CC[C@H]3CN(c3cnnc(Cl)c3)C4)nc12	46.5
Cc1cn(-c2ccc(Nc3nc4c(C(C)C)ccc(OCC(F)(F)F)n4n3)cc2C#N)cn1	49.4
FC(F)(F)COc1cccc2nc(N[C@@H]3[C@@H]4CC[C@H]3CN(c3ccnc(C(F)(F)F)c3)C4)nn12	43.6
COc1cc(N2C[C@H]3CC[C@@H](C2)[C@@H]3Nc2nc3c(C(C)C)ccc(OCC(F)(F)F)n3n2)ccn1	25.4
CC(C)c1ccc(OCC(F)(F)F)n2nc(N[C@@H]3[C@@H]4CC[C@H]3CN(c3ccnc(C(F)(F)F)c3)C4)nc12	33.2
Cc1cn(-c2ccc(Nc3nc4c(C(C)(C)O)ccc(O[C@@H](C)C(F)(F)F)n4n3)cc2C#N)cn1	37.3
Cc1ccc(OCC(F)(F)F)n2nc(N[C@@H]3[C@@H]4CC[C@H]3CN(c3ccnc(Cl)c3)C4)nc12	9.2
Cc1noc(N2C[C@H]3CC[C@@H](C2)[C@@H]3Nc2nc3c(C(C)C)ccc(OCC(F)(F)F)n3n2)n1	37.4

Further lines, results first:

EC50 [nM]	Structure (SMILES)
43.2	Cc1nnc(N2C[C@H]3CC[C@@H](C2)[C@@H]3Nc2nc3c(C(C)C)ccc(O[C@@H](C)C(F)(F)F)n3n2)o1
34.6	Cc1cc(N2C[C@H]3CC[C@@H](C2)[C@@H]3Nc2nc3c(C(C)(C)O)ccc(O[C@@H](C)C(F)(F)F)n3n2)ncn1
49	Cc1noc(N2C[C@H]3CC[C@@H](C2)[C@@H]3Nc2nc3c(C(C)C)ccc(O[C@@H](C)C(F)(F)F)n3n2)n1
40	C[C@H](Oc1ccc(C(C)(C)O)c2nc(N[C@@H]3[C@@H]4CC[C@H]3CN(c3cnnc(Cl)c3)C4)nn12)C(F)(F)F
19.6	COc1cc(N2C[C@H]3CC[C@@H](C2)C3Nc2nc3c(C(C)C)ccc(O[C@@H](C)C(F)(F)F)n3n2)ccn1 (some centres not stated)
21.2	COc1cc(N2C[C@H]3CC[C@@H](C2)[C@@H]3Nc2nc3c(C(C)C)ccc(OCC(F)(F)F)n3n2)cnn1
23.2	CC(C)c1ccc(OCC(F)(F)F)n2nc(N[C@@H]3[C@@H]4CC[C@H]3CN(c3cnnc(Cl)c3)C4)nc12
44.8	CC(C)(O)c1ccc(OCC(F)(F)F)n2nc(N[C@@H]3[C@@H]4CC[C@H]3CN(c3ccnc(C(F)(F)F)c3)C4)nc12
13.2	CC(C)c1ccc(O[C@@H](C)C(F)(F)F)n2nc(N[C@@H]3[C@@H]4CC[C@H]3CN(c3cnnc(Cl)c3)C4)nc12
38.5	Cc1cc(N2C[C@H]3CC[C@@H](C2)[C@@H]3Nc2nc3c(C(C)C)ccc(OCC(F)(F)F)n3n2)ncn1
14.2	COc1cc(N2C[C@H]3CC[C@@H](C2)[C@@H]3Nc2nc3c(C(C)C)ccc(O[C@@H](C)C(F)(F)F)n3n2)cnn1
43.8	Cc1cc(N2C[C@H]3CC[C@@H](C2)[C@@H]3Nc2nc3c(C(C)(C)O)ccc(OCC(F)(F)F)n3n2)ncn1
29.9	Cc1cc(N2C[C@H]3CC[C@@H](C2)[C@@H]3Nc2nc3c(C)ccc(OCC(F)(F)F)n3n2)ncn1

Source: ChEMBL document CHEMBL5728179, “Triazolopyridines” (2020)
